# The source made the active and inactive calls. No cut-off for these calls is given here.
# Experiments:
# [1] = Metabolic stability in mouse liver microsomes assessed as half-life at 1 uM incubated for 45 mins by LC-MS/MS analysis; assay type: ADME, Microsome
# MDA-MB-231 [2] = test: Induction of apoptosis in human MDA-MB-231 cells assessed as apoptotic cells at 5 uM incubated for 24 hrs by Annexin V-FITC/PI staining based flow cytometric analysis relative to control; assay type: functional
# [3] = Toxicity in BALB/c athymic nude mouse xenografted with human MDA-MB-231 cells assessed as body weight loss at 10 to 30 mg/kg, po administered once a day via gavage for 21 days; assay type: organism-based; details: in vivo, 504 h, dose 10-30 mg/kg, time 21 day
# MDA-MB-231 [4] = test: Cell cycle arrest in human MDA-MB-231 cells assessed as accumulation of G0-G1 phase cells at 5 uM incubated for 24 hrs by […]PI staining based flow cytometric analysis (reference value: 41.83%); assay type: functional
# MDA-MB-231 [5] = test: Induction of apoptosis in human MDA-MB-231 cells assessed as late apoptotic cells at 2.5 uM incubated for 24 hrs by Annexin V-FITC/PI staining based flow cytometric analysis (reference value: 0.161 %); assay type: functional
# [6] = Metabolic stability in human liver microsomes assessed as parent compound remaining at 1 uM measured after 45 mins by LC-MS/MS analysis; assay type: ADME, Microsome; details: read-out: Stability
# MDA-MB-231 [7] = test: Inhibition of cell migration in human MDA-MB-231 cells at 5 uM incubated for 12 hrs by cell scratch assay relative to control; assay type: functional
# MDA-MB-231 [8] = test: Effect on ERK protein expression in human MDA-MB-231 cells at 5 to 10 uM incubated for 24 hrs by Western blot analysis; assay type: functional, cell-based; details: dose 5-10 µM
# [9] = Toxicity in BALB/c athymic nude mouse xenografted with human MDA-MB-231 cells assessed as effect on kidney at 10 to 30 mg/kg, po administered once a day via gavage for 21 days by H and E staining based analysis; assay type: organism-based; details: in vivo, 504 h, dose 10-30 mg/kg, time 21 day
# MDA-MB-231 [10] = test: Induction of ROS production in human MDA-MB-231 cells incubated for 12 hrs by flow cytometry based confocal microscopic analysis; assay type: functional, cell-based; details: dose 2.5-10 µM
# [11] = Metabolic stability in mouse liver microsomes assessed as parent compound remaining at 1 uM measured after 30 mins by LC-MS/MS analysis; assay type: ADME, Microsome; details: read-out: Stability
# MDA-MB-231 [12] = test: Induction of apoptosis in human MDA-MB-231 cells assessed as necrotic cells at 2.5 uM incubated for 24 hrs by Annexin V-FITC/PI staining based flow cytometric analysis (reference value: 0.063 %); assay type: functional
# MDA-MB-231 [13] = test: cells; details: Homo sapiens, MDA-MB-231, 72 h
# MDA-MB-231 [14] = test: Induction of apoptosis in human MDA-MB-231 cells assessed as early apoptotic cells at 10 uM incubated for 24 hrs by Annexin V-FITC/PI staining based flow cytometric analysis (reference value: 0.131 %); assay type: functional
# MDA-MB-231 [15] = test: Induction of apoptosis in human MDA-MB-231 cells assessed as viable cells at 2.5 uM incubated for 24 hrs by Annexin V-FITC/PI staining based flow cytometric analysis (reference value: 99.645%); assay type: functional; details: read-out: Activity
# MDA-MB-231 [16] = test: Induction of apoptosis in human MDA-MB-231 cells assessed as viable cells at 5 uM incubated for 24 hrs by Annexin V-FITC/PI staining based flow cytometric analysis (reference value: 99.645%); assay type: functional; details: read-out: Activity
# MDA-MB-231 [17] = test: Cell cycle arrest in human MDA-MB-231 cells assessed as accumulation of G2-M phase cells at 2.5 uM incubated for 24 hrs by […]PI staining based flow cytometric analysis (reference value: 16.88%); assay type: functional
# MDA-MB-231 [18] = test: Induction of apoptosis in human MDA-MB-231 cells assessed as increase in cleaved-PARP protein expression incubated for 24 hrs by Western blot analysis; assay type: functional, cell-based; details: dose 2.5-10 µM
# MDA-MB-231 [19] = test: Induction of apoptosis in human MDA-MB-231 cells assessed as apoptotic cells at 10 uM incubated for 24 hrs by Annexin V-FITC/PI staining based flow cytometric analysis relative to control; assay type: functional
# [20] = Metabolic stability in rat liver microsomes assessed as intrinsic clearance at 1 uM incubated for 45 mins by LC-MS/MS analysis; assay type: ADME, Microsome; details: read-out: CLH
# MDA-MB-231 [21] = test: Cell cycle arrest in human MDA-MB-231 cells assessed as accumulation of G0-G1 phase cells at 10 uM incubated for 24 hrs by […]PI staining based flow cytometric analysis (reference value: 41.83%); assay type: functional
# MDA-MB-231 [22] = test: Antitumor activity against human MDA-MB-231 cells xenografted in female BALB/c athymic nude mouse assessed as tumor growth inhibition at 20 mg/kg, po administered once a day via gavage for 21 days relative to control; assay type: functional; details: MDA-MB-231, 504 h, time 21 day, read-out: TGI
# [23] = molecular target: Fibroblast growth factor receptor 3 (Homo sapiens, UniProt P22607); test: Inhibition of FGFR3 (unknown origin) by ELISA
# Fibroblast growth factor receptor 3, sequence (P22607 whole entry): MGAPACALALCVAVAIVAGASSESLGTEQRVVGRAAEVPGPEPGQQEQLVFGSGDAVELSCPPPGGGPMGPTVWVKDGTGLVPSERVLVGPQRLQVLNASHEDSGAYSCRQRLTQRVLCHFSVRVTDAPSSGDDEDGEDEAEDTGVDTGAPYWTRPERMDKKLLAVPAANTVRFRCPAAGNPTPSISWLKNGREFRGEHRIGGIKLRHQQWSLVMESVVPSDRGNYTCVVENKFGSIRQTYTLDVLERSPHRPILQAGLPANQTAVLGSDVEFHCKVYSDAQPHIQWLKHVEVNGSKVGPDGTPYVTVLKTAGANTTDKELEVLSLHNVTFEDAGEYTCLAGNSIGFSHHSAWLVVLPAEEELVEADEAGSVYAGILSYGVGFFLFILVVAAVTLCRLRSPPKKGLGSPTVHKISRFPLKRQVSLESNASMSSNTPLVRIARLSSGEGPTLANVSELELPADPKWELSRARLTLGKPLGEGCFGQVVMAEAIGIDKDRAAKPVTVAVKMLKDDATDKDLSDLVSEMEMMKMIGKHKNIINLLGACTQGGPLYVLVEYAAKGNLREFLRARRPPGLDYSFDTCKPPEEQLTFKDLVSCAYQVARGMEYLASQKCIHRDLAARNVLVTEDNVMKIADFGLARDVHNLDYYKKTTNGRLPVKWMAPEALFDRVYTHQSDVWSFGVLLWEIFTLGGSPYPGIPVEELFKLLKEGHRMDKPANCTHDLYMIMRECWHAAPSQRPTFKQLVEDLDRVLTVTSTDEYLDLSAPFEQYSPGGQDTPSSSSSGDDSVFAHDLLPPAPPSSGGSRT
# HepG2 = test: cells; details: Homo sapiens, HepG2, 72 h
# MDA-MB-231 [24] = test: Induction of apoptosis in human MDA-MB-231 cells assessed as viable cells at 10 uM incubated for 24 hrs by Annexin V-FITC/PI staining based flow cytometric analysis (reference value: 99.645%); assay type: functional; details: read-out: Activity
# [25] = Metabolic stability in human liver microsomes assessed as parent compound remaining at 1 uM measured after 15 mins by LC-MS/MS analysis; assay type: ADME, Microsome; details: read-out: Stability
# MDA-MB-231 [26] = test: Cell cycle arrest in human MDA-MB-231 cells assessed as accumulation of S phase cells at 10 uM incubated for 24 hrs by […]PI staining based flow cytometric analysis (reference value: 41.29%); assay type: functional
# MDA-MB-231 [27] = test: Induction of apoptosis in human MDA-MB-231 cells assessed as early apoptotic cells at 5 uM incubated for 24 hrs by Annexin V-FITC/PI staining based flow cytometric analysis (reference value: 0.131 %); assay type: functional
# MDA-MB-231 [28] = test: Induction of apoptosis in human MDA-MB-231 cells assessed as late apoptotic cells at 5 uM incubated for 24 hrs by Annexin V-FITC/PI staining based flow cytometric analysis (reference value: 0.161 %); assay type: functional
# [29] = Metabolic stability in human liver microsomes assessed as intrinsic clearance at 1 uM incubated for 45 mins by LC-MS/MS analysis; assay type: ADME, Microsome; details: read-out: CLH
structure (smiles),measurement,setting,value
C=CC(=O)Nc1ccc(Cn2cnc3c(-c4cc(OC)cc(OC)c4)ncnc32)cc1,half-life at 1 µM,[1],12.9 min
same,Activity,MDA-MB-231 [2],45.4%
same,Activity,[3],Non-Toxic
same,Activity,MDA-MB-231 [4],66.5%
same,Activity,MDA-MB-231 [5],6.16%
same,"remaining at 0.75 h, 1 µM",[6],33.8%
same,inhibition at 5 µM,MDA-MB-231 [7],82%
same,Activity,MDA-MB-231 [8],inactive
same,Activity,[9],Non-Toxic
same,Activity,MDA-MB-231 [10],Dose-Dependent Effect
same,"remaining at 0.5 h, 1 µM",[11],8.63%
same,Activity,MDA-MB-231 [12],2.66%
same,IC50,MDA-MB-231 [13],1.89 µM
same,Activity,MDA-MB-231 [14],45.4%
same,viability at 2.5 µM,MDA-MB-231 [15],64.9%
same,viability at 5 µM,MDA-MB-231 [16],47.8%
same,Activity,MDA-MB-231 [17],14.94%
same,Activity,MDA-MB-231 [18],Dose-Dependent Effect
same,Activity,MDA-MB-231 [19],56.8%
same,CLint scaled at 1 µM,[20],156 mL/min/kg
same,Activity,MDA-MB-231 [21],73.78%
same,inhibition in vivo at 20 mg/kg,MDA-MB-231 [22],64.2%
same,IC50,[23],0.00064 µM
same,IC50,HepG2,7.93 µM
same,viability at 10 µM,MDA-MB-231 [24],37.2%
same,"remaining at 0.25 h, 1 µM",[25],63.5%
same,Activity,MDA-MB-231 [26],10.73%
same,Activity,MDA-MB-231 [27],34.92%
same,Activity,MDA-MB-231 [28],14.25%
same,CLint scaled at 1 µM,[29],42 mL/min/kg

# Reference: ChEMBL document CHEMBL5500360, “Discovery of N-(4-((6-(3,5- Dimethoxyphenyl)-9H-purine derivatives as irreversible covalent FGFR inhibitors” (Eur J Med Chem, 2024)
